Assay results reported in PubChem BioAssay (NCI).
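Values below derive from 48-hour exposures of cells grown in 96-well plates, with endpoints linearly interpolated between the two concentrations bracketing the appropriate inhibition level. Here, GI50 denotes the concentration required for 50% inhibition of growth. TGI is the concentration that stops growth completely.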

Legend:
Assay in all cases: NCI tumour cell line growth inhibition, 48 h
SNB-75 CNS = system: SNB-75 CNS
786-0 renal = system: 786-0 renal
NCI-H226 lung = system: NCI-H226 lung
OVCAR-3 ovarian = system: OVCAR-3 ovarian
NCI-H23 lung = system: NCI-H23 lung
HOP-62 NSCLC = system: HOP-62 NSCLC
UO-31 renal = system: UO-31 renal
EKVX NSCLC = system: EKVX NSCLC
HOP-92 NSCLC = system: HOP-92 NSCLC
BT-549 breast = system: BT-549 breast
NCI-H522 lung = system: NCI-H522 lung
LOX IMVI melanoma = system: LOX IMVI melanoma
U251 CNS = system: U251 CNS
NCI-H460 lung = system: NCI-H460 lung
SF-295 CNS = system: SF-295 CNS
RPMI-8226 leukemia = system: RPMI-8226 leukemia
DU-145 prostate = system: DU-145 prostate
COLO 205 colon = system: COLO 205 colon
SK-MEL-2 melanoma = system: SK-MEL-2 melanoma
CAKI-1 renal = system: CAKI-1 renal
MOLT-4 leukemia = system: MOLT-4 leukemia
OVCAR-5 ovarian = system: OVCAR-5 ovarian
HT29 colon = system: HT29 colon
OVCAR-8 ovarian = system: OVCAR-8 ovarian
SNB-19 CNS = system: SNB-19 CNS
SN12C renal = system: SN12C renal
KM12 colon = system: KM12 colon
UACC-257 melanoma = system: UACC-257 melanoma
HCT-15 colon = system: HCT-15 colon
UACC-62 melanoma = system: UACC-62 melanoma
SF-539 CNS = system: SF-539 CNS
SK-MEL-28 melanoma = system: SK-MEL-28 melanoma
SK-MEL-5 melanoma = system: SK-MEL-5 melanoma
TK-10 renal = system: TK-10 renal
MDA-MB-435 = system: MDA-MB-435
HL-60(TB) leukemia = system: HL-60(TB) leukemia
OVCAR-4 ovarian = system: OVCAR-4 ovarian
HCC-2998 colon = system: HCC-2998 colon
SK-OV-3 ovarian = system: SK-OV-3 ovarian
A549 NSCLC = system: A549 NSCLC
MDA-MB-231 breast = system: MDA-MB-231 breast
M14 melanoma = system: M14 melanoma
K-562 leukemia = system: K-562 leukemia
SR leukemia = system: SR leukemia
SW-620 colon = system: SW-620 colon
SF-268 CNS = system: SF-268 CNS
T-47D breast = system: T-47D breast
RXF 393 renal = system: RXF 393 renal
ACHN renal = system: ACHN renal
PC-3 prostate = system: PC-3 prostate
NCI/ADR-RES ovarian = system: NCI/ADR-RES ovarian
MCF7 breast = system: MCF7 breast
HCT-116 colon = system: HCT-116 colon
HS 578T breast = system: HS 578T breast
CCRF-CEM leukemia = system: CCRF-CEM leukemia

N/N=C\c1c2ccccc2c(=O)n2c1oc1ccccc12 was tested, and the GI50 (SNB-75 CNS) was 11.5 µM, the TGI (SNB-75 CNS) was 31 µM and the GI50 (786-0 renal) was 26.7 µM. For the same molecule, the TGI (786-0 renal) was 61.7 µM, the GI50 (NCI-H226 lung) was 14.6 µM and the TGI (NCI-H226 lung) was 33.9 µM. For the same molecule, the GI50 (OVCAR-3 ovarian) was 14.7 µM, the TGI (OVCAR-3 ovarian) was 28 µM and the GI50 (NCI-H23 lung) was 15.7 µM. It also gave a TGI (NCI-H23 lung) of 29.9 µM, a GI50 (HOP-62 NSCLC) of 16.9 µM and a TGI (HOP-62 NSCLC) of 32.9 µM. The GI50 (UO-31 renal) was 25.8 µM, the TGI (UO-31 renal) was 87.7 µM and the GI50 (EKVX NSCLC) was 10.2 µM. It also gave a TGI (EKVX NSCLC) of 26.2 µM, a GI50 (HOP-92 NSCLC) of 18.9 µM and a TGI (HOP-92 NSCLC) of 38.7 µM. The GI50 (BT-549 breast) was 1.42 µM, the TGI (BT-549 breast) was 17 µM and the GI50 (NCI-H522 lung) was 13.6 µM. The TGI (NCI-H522 lung) was 46 µM, the GI50 (LOX IMVI melanoma) was 16.4 µM and the TGI (LOX IMVI melanoma) was 29.9 µM. The GI50 (U251 CNS) was 14.6 µM, the TGI (U251 CNS) was 27.7 µM and the GI50 (NCI-H460 lung) was 5.47 µM. For the same molecule, the TGI (NCI-H460 lung) was 18.4 µM, the GI50 (SF-295 CNS) was 2.61 µM and the TGI (SF-295 CNS) was 12.3 µM. For the same molecule, the GI50 (RPMI-8226 leukemia) was 9.18 µM, the TGI (RPMI-8226 leukemia) was 29 µM and the GI50 (DU-145 prostate) was 10.6 µM. The TGI (DU-145 prostate) was 24.9 µM, the GI50 (COLO 205 colon) was 18.3 µM and the TGI (COLO 205 colon) was 34.8 µM. It also gave a GI50 (SK-MEL-2 melanoma) of 26.5 µM, a TGI (SK-MEL-2 melanoma) greater than 100 µM and a GI50 (CAKI-1 renal) of 14.2 µM. The TGI (CAKI-1 renal) was 27.3 µM, the GI50 (MOLT-4 leukemia) was 17.4 µM and the TGI (MOLT-4 leukemia) was 64.9 µM. The GI50 (OVCAR-5 ovarian) was 18.4 µM, the TGI (OVCAR-5 ovarian) was 34.8 µM and the GI50 (HT29 colon) was 22.1 µM. For the same molecule, the TGI (HT29 colon) was greater than 100 µM, the GI50 (OVCAR-8 ovarian) was 19.4 µM and the TGI (OVCAR-8 ovarian) was 49.4 µM. The GI50 (SNB-19 CNS) was 17.8 µM, the TGI (SNB-19 CNS) was 38.7 µM and the GI50 (SN12C renal) was 14.4 µM. It also gave a TGI (SN12C renal) of 29.7 µM, a GI50 (KM12 colon) of 14.6 µM and a TGI (KM12 colon) of 27.7 µM. It also gave a GI50 (UACC-257 melanoma) of 17.3 µM, a TGI (UACC-257 melanoma) of 39 µM and a GI50 (HCT-15 colon) of 17.3 µM. For the same molecule, the TGI (HCT-15 colon) was 34.6 µM, the GI50 (UACC-62 melanoma) was 6.82 µM and the TGI (UACC-62 melanoma) was 19.7 µM. The GI50 (SF-539 CNS) was 11.4 µM, the TGI (SF-539 CNS) was 23.6 µM and the GI50 (SK-MEL-28 melanoma) was 18.8 µM. It also gave a TGI (SK-MEL-28 melanoma) of 38.7 µM, a GI50 (SK-MEL-5 melanoma) of 2.8 µM and a TGI (SK-MEL-5 melanoma) of 8.34 µM. For the same molecule, the GI50 (TK-10 renal) was 18.7 µM, the TGI (TK-10 renal) was 34.3 µM and the GI50 (MDA-MB-435) was 11.3 µM. For the same molecule, the TGI (MDA-MB-435) was 23.8 µM, the GI50 (HL-60(TB) leukemia) was 21.1 µM and the TGI (HL-60(TB) leukemia) was 50.9 µM. The GI50 (OVCAR-4 ovarian) was 13.1 µM, the TGI (OVCAR-4 ovarian) was greater than 100 µM and the GI50 (HCC-2998 colon) was 16.5 µM. The TGI (HCC-2998 colon) was 30.5 µM, the GI50 (SK-OV-3 ovarian) was 17.6 µM and the TGI (SK-OV-3 ovarian) was 34.3 µM. For the same molecule, the GI50 (A549 NSCLC) was 11.2 µM, the TGI (A549 NSCLC) was 41.7 µM and the GI50 (MDA-MB-231 breast) was 10.8 µM. The TGI (MDA-MB-231 breast) was 25 µM, the GI50 (M14 melanoma) was 27.3 µM and the TGI (M14 melanoma) was 83.6 µM. It also gave a GI50 (K-562 leukemia) of 20.8 µM, a TGI (K-562 leukemia) of 67.6 µM and a GI50 (SR leukemia) of 5.61 µM. For the same molecule, the TGI (SR leukemia) was 26 µM, the GI50 (SW-620 colon) was 15.1 µM and the TGI (SW-620 colon) was 32.5 µM. For the same molecule, the GI50 (SF-268 CNS) was 15.9 µM, the TGI (SF-268 CNS) was 30.4 µM and the GI50 (T-47D breast) was 20.5 µM. The TGI (T-47D breast) was 39.9 µM, the GI50 (RXF 393 renal) was 20 µM and the TGI (RXF 393 renal) was 52.5 µM. The GI50 (ACHN renal) was 16.3 µM, the TGI (ACHN renal) was 29.9 µM and the GI50 (PC-3 prostate) was 12.7 µM. For the same molecule, the TGI (PC-3 prostate) was 26.4 µM, the GI50 (NCI/ADR-RES ovarian) was 16.9 µM and the TGI (NCI/ADR-RES ovarian) was 38.1 µM.

COc1ccc2c(c1)C(=O)CCc1cc(OC)c(OC)c(OC)c1-2 was tested, and the GI50 (786-0 renal) was less than 0.01 µM, the TGI (786-0 renal) was greater than 100 µM and the GI50 (NCI-H226 lung) was less than 0.01 µM. The GI50 (NCI-H23 lung) was less than 0.01 µM, the TGI (NCI-H23 lung) was 0.0617 µM and the GI50 (UO-31 renal) was less than 0.01 µM. It also gave a TGI (UO-31 renal) greater than 100 µM, a GI50 (LOX IMVI melanoma) of less than 0.01 µM and a TGI (LOX IMVI melanoma) greater than 100 µM. The GI50 (U251 CNS) was less than 0.01 µM, the TGI (U251 CNS) was 0.18 µM and the GI50 (NCI-H460 lung) was less than 0.01 µM. It also gave a TGI (NCI-H460 lung) greater than 100 µM, a GI50 (SF-295 CNS) of less than 0.01 µM and a TGI (SF-295 CNS) greater than 100 µM. For the same molecule, the GI50 (RPMI-8226 leukemia) was less than 0.01 µM, the TGI (RPMI-8226 leukemia) was greater than 100 µM and the GI50 (DU-145 prostate) was less than 0.01 µM. The GI50 (COLO 205 colon) was less than 0.01 µM, the TGI (COLO 205 colon) was 16.9 µM and the GI50 (SK-MEL-2 melanoma) was less than 0.01 µM. It also gave a GI50 (CAKI-1 renal) of less than 0.01 µM, a TGI (CAKI-1 renal) greater than 100 µM and a TGI (MCF7 breast) greater than 100 µM. It also gave a GI50 (MOLT-4 leukemia) of less than 0.01 µM, a TGI (MOLT-4 leukemia) of 35.4 µM and a GI50 (HCT-116 colon) of less than 0.01 µM. The TGI (HCT-116 colon) was greater than 100 µM, the GI50 (HT29 colon) was less than 0.01 µM and the GI50 (OVCAR-8 ovarian) was less than 0.01 µM. It also gave a TGI (HS 578T breast) of 0.0576 µM, a GI50 (SNB-19 CNS) of less than 0.01 µM and a TGI (SNB-19 CNS) greater than 100 µM. It also gave a GI50 (SN12C renal) of less than 0.01 µM, a TGI (SN12C renal) greater than 100 µM and a GI50 (KM12 colon) of less than 0.01 µM. It also gave a GI50 (CCRF-CEM leukemia) of less than 0.01 µM, a TGI (CCRF-CEM leukemia) greater than 100 µM and a TGI (UACC-257 melanoma) greater than 100 µM. It also gave a GI50 (HCT-15 colon) of less than 0.01 µM, a TGI (HCT-15 colon) greater than 100 µM and a GI50 (UACC-62 melanoma) of less than 0.01 µM. It also gave a TGI (UACC-62 melanoma) greater than 100 µM, a TGI (SF-539 CNS) of 87.1 µM and a GI50 (SK-MEL-28 melanoma) of 24.8 µM. It also gave a TGI (SK-MEL-28 melanoma) greater than 100 µM, a TGI (TK-10 renal) greater than 100 µM and a TGI (MDA-MB-435) of 0.0717 µM. For the same molecule, the GI50 (OVCAR-4 ovarian) was 0.818 µM, the TGI (OVCAR-4 ovarian) was greater than 100 µM and the GI50 (HCC-2998 colon) was less than 0.01 µM. For the same molecule, the TGI (SK-OV-3 ovarian) was greater than 100 µM, the GI50 (A549 NSCLC) was less than 0.01 µM and the TGI (A549 NSCLC) was greater than 100 µM. It also gave a GI50 (MDA-MB-231 breast) of less than 0.01 µM, a TGI (MDA-MB-231 breast) greater than 100 µM and a GI50 (M14 melanoma) of less than 0.01 µM. For the same molecule, the TGI (M14 melanoma) was greater than 100 µM, the GI50 (K-562 leukemia) was less than 0.01 µM and the TGI (K-562 leukemia) was greater than 100 µM. It also gave a GI50 (SW-620 colon) of less than 0.01 µM, a TGI (SW-620 colon) greater than 100 µM and a GI50 (SF-268 CNS) of 0.0652 µM. The TGI (SF-268 CNS) was greater than 100 µM, the GI50 (ACHN renal) was 0.0505 µM and the TGI (ACHN renal) was greater than 100 µM. The GI50 (PC-3 prostate) was less than 0.01 µM, the TGI (PC-3 prostate) was greater than 100 µM and the GI50 (NCI/ADR-RES ovarian) was less than 0.01 µM.
